Data: patent US20210290593A1, “USE OF SUSTAINED-RELEASE 5-HYDROXYTRYPTOPHAN IN TREATING GASTROINTESTINAL DISORDERS” (Duke University, priority 2018, published 2021)
Entries after “also recorded” stand apart in the source; their conditions may differ. Read-outs that look alike come from different tables or passages of the source.

What was measured:
WT and R439H mice [1] = experiment: Total gastrointestinal transit time (oral carmine red); assay type: in vivo, mouse; conditions: 30 mg/kg intraperitoneal
Procedure: Carmine red (300 μl; 6%; Sigma-Aldrich) suspended in 0.5% methylcellulose, which cannot be absorbed, was administered by gavage to study total GI transit time. Total GI transit time was considered as the interval between gavage and the appearance of carmine red in stool (Kimball et al, 2005).

WT and R439H mice [2] = experiment: Colonic propulsion (glass bead expulsion time); assay type: in vivo, mouse
Procedure: Mice were anesthetized with isoflurane (Baxter Pharmaceutical Products) and a glass bead (3 mm in diameter) was pushed with a fire-polished glass rod through the anus into the colon to a distance of 2 cm from the anal verge (Li et al, 2006). The time required for the mice to expel the bead was determined and used to estimate in vivo colorectal propulsion.

[3] = tested on: isolated colon of WT and R439H mice; experiment: Colonic migrating motor complexes (CMMC) measured in vitro; set-up: species or system mouse
Procedure: The entire colon (5-6 cm) was removed and mounted to allow spontaneous motor patterns to be video-imaged for the construction of spatiotemporal maps (Roberts et al, 2008; Roberts et al, 2007). The isolated colon was incubated in Krebs' solution until endogenous fecal pellets were expelled. The empty colon was cannulated at both ends, mounted in a horizontal organ bath, and both luminal and serosal compartments were superfused with oxygenated Krebs' solution at 35° C. The height of a reservoir connected to the oral cannula was adjusted to maintain intraluminal pressure at +2 cm HO. The anal cannula provided a maximum of 2 cm of back-pressure. The contractile activity was imaged with a Logitech Quickcam pro camera positioned 7-8 cm above the gut. Preparations were equilibrated for 30 min and four 15 min videos were captured. Spatiotemporal maps of the diameter at each point along the proximo-distal length of colon were constructed and used to quantify the frequency of CMMCs as well as the velocity and length of their propagation (Margolis et al, 2016b; Welch et al, 2014). CMMCs were defined as constrictions of the diameter of the bowel that propagated for at least 50% of the length of the preparations. For studies utilizing IR 5-HTP, a dose response curve was conducted whereby the isolated colons were exposed to concentrations of 5-HTP ranging from 1 to 10 μM, both intraluminally and extraluminally.

mice = experiment: Morphine-induced constipation (colonic motility); assay type: in vivo, mouse
From the text: FIG. 8. Morphine-induced constipation and reversal by 5-HTP in mice.

animals = experiment: Colonic motility, prucalopride vs 5-HTP; assay type: in vivo; conditions: in animals
From the text: FIG. 9. Colonic motility. Effect of prucalopride vs 5-HTP.

[4] = Human 5-HTP gastrointestinal regional absorption study (plasma 5-HTP); assay type: in vivo; conditions: for bioavailability: read-out: Absolute bioavailability F; for Cmax: read-out: Maximal average 5-HTP plasma (CMax) levels
Procedure: Determination of absolute and regional intestinal bioavailability of 5-HTP in humans.
The free base form of 5-HTP was used (5-HTP has a water solubility of >10 mg/mL).
Colonic: 5-HTP free base saline solution 200 mg.
Intravenous: 5-HTP free base saline solution 50 mg.
Oral/Upper GI: Two 5-HTP gelatin tablets of 100 mg 5-HTP free base (200 mg total dose).
Healthy male and female volunteers aged 18 to 65 years with a body mass index (BMI) of 19 to 28 were eligible for the study. Subjects were admitted to the investigational medical unit (IMU) 2 h before 5-HTP administration and remained at the IMU for 24 h following, for blood sampling and safety assessment.
All subjects (n=12) received 5-HTP mg on 3 occasions. (1) Intra-colonic 200 mg 5-HTP solution by colonoscopy. (2) Intravenous 50 mg (IV). (3) Upper GI (oral) 5-HTP 200 mg. At least 6 days passed between each visit.
Plasma samples were collected over 24-hours after 5-HTP administration. Plasma samples were stored at −80° C. until analysis. 5-HTP and the metabolite 5-hydroxyindole-acetic-acid (5-HIAA) were quantified by liquid chromatography with mass-spectrometry detection.
The PK data were analyzed using noncompartmental (NCA) and compartmental (mixed effects) mathematical modelling approaches, to calculate area 5-HTP plasma under the curve (AUC) for each subject for each 5-HTP administration.
From FIG. 10, the area under the curve (AUC) for each route of administration was obtained, which was then used to calculate the absolute bioavailability (F) of the oral and colon routes of administration. For example, the formula for calculating F for a drug administered by the oral route (po) is given below (D is dose): […]

Water solubility = assay type: physicochemical; conditions: free base
[5] = after administration of exogenous 5-HTP; cited from earlier work
[6] = one rodent study; cited from earlier work
R439H mice = conditions: cited from earlier work

In the case of `N[C@@H](Cc1c[nH]c2ccc(O)cc12)C(=O)O` [5-HTP, 5-hydroxytryptophan], the “Total in vivo GI transit time” value (WT and R439H mice [1]) was 74.9 ± 19.5 min, the “Time of colonic bead expulsion” value (WT and R439H mice [2]; 30 mg/kg intraperitoneal) was 7.2 ± 1.6 min and the “Time of colonic bead expulsion” value (WT and R439H mice [2]; 100 mg/kg intraperitoneal) was 5.2 ± 1.6 min. The CMMC frequency ([3]; R439H colon, extraluminal 1 μM) was 0.78±0.18 CMMC/min, the CMMC velocity ([3]; R439H colon, extraluminal 1 μM) was 3.2±0.2 mm/s and the CMMC frequency ([3]; R439H colon, intraluminal 1 μM) was 1.02±0.10 CMMC/min. The CMMC velocity ([3]; R439H colon, intraluminal 1 μM) was 2.7±0.2 mm/s, the CMMC frequency ([3]; WT colon, extraluminal 1 μM) was 0.60±0.20 CMMC/min and the CMMC velocity ([3]; WT colon, extraluminal 1 μM) was 1.4±0.5 mm/s. For the same molecule, the CMMC frequency ([3]; WT colon, intraluminal 1 μM) was 0.90±0.06 CMMC/min, the CMMC velocity ([3]; WT colon, intraluminal 1 μM) was 2.3±0.2 mm/s and the “Colonic motility, 5-HTP by itself” value (mice; 5-HTP 30 mg/kg) was “enhanced colonic motility”. For the same molecule, the “Effect on morphine-induced constipation (colonic motility)” value (mice; 5-HTP 30 mg/kg with morphine 10 mg/kg) was “reversed the morphine-induced constipation”, the “Efficacy (maximal effect) on colonic motility compared to prucalopride” value (animals) was “higher efficacy” and the “Potency on colonic motility compared to prucalopride” value (animals) was “higher potency; also recorded: more potent than prucalopride at lower doses”. For the same molecule, the “Absorption in upper intestine compared to colon” value [4] was 5 times, the AUC ([4]; both sexes, plasma, intravenous dosing 50 mg) was 2040 ng·h/mL and the bioavailability ([4]; both sexes, plasma, oral 200 mg (upper GI tract)) was 20%. It also gave an AUC ([4]; both sexes, plasma, oral dosing 200 mg) of 1500 ng·h/mL, a Cmax ([4]; both sexes, plasma, other: intra-colonic by colonoscopy, 200 mg, intra-colonic 200 mg) of 40 to 50 ng/mL and an AUC ([4]; both sexes, plasma, other: intra-colonic by colonoscopy, colonic dosing 200 mg) of 312 ng·h/mL. For the same molecule, the bioavailability ([4]; both sexes, plasma, other: intra-colonic by colonoscopy, intra-colonic 200 mg) was 4%, the Relative upper GI:colon bioavailability ([4]; both sexes, plasma, other: upper GI (oral) and intra-colonic compared, 200 mg, read-out: Relative upper GI tract:colon bioavailability (RBA)) was 20% and the Cmax ([4]; both sexes, plasma, po, 200 mg, oral 200 mg) was 370 ng/mL. For the same molecule, the “Maximal average 5-HTP plasma (CMax) levels” value ([4]; intra-colonic 200 mg) was 47 ng/mL, the solubility (Water solubility) was greater than 10000 µg/mL and the “5-HTP plasma levels needed to produce systemic pharmacological effects” value [5] was “over 100 ng/ml”. For the same molecule, the “Absorption by the colon vs the upper intestine” value [6] was “absorbed equally well by the colon and the upper intestine”.

For `CN1CC[C@]23c4c5ccc(O)c4O[C@H]2[C@@H](O)C=C[C@H]3[C@H]1C5` [Morphine, reference compound], the Colonic motility (mice; morphine 10 mg/kg) was “induced constipation, as determined by slowed colonic motility”.

For `CNCCC(Oc1ccc(C(F)(F)F)cc1)c1ccccc1` (stereo not shown) [fluoxetine], the “CNS 5-HT levels” value (R439H mice) is listed as “further decline in CNS 5-HT levels” and the Depressive behaviors (R439H mice) is listed as “worsened their depressive behaviors”.
